This is an account of results in ChEMBL document CHEMBL1137734, “2D- and 3D-QSAR of tocainide and mexiletine analogues acting as Na(v)1.4 channel blockers” (Eur J Med Chem, 2009).

Each structure is given as a SMILES string. pEC50: −log10 of the molar value.

By pEC50 is commonly meant the negative decadic logarithm of the EC50, by convention in mol/L.

Sodium channel protein type 4 subunit alpha, sequence (P35499 whole entry): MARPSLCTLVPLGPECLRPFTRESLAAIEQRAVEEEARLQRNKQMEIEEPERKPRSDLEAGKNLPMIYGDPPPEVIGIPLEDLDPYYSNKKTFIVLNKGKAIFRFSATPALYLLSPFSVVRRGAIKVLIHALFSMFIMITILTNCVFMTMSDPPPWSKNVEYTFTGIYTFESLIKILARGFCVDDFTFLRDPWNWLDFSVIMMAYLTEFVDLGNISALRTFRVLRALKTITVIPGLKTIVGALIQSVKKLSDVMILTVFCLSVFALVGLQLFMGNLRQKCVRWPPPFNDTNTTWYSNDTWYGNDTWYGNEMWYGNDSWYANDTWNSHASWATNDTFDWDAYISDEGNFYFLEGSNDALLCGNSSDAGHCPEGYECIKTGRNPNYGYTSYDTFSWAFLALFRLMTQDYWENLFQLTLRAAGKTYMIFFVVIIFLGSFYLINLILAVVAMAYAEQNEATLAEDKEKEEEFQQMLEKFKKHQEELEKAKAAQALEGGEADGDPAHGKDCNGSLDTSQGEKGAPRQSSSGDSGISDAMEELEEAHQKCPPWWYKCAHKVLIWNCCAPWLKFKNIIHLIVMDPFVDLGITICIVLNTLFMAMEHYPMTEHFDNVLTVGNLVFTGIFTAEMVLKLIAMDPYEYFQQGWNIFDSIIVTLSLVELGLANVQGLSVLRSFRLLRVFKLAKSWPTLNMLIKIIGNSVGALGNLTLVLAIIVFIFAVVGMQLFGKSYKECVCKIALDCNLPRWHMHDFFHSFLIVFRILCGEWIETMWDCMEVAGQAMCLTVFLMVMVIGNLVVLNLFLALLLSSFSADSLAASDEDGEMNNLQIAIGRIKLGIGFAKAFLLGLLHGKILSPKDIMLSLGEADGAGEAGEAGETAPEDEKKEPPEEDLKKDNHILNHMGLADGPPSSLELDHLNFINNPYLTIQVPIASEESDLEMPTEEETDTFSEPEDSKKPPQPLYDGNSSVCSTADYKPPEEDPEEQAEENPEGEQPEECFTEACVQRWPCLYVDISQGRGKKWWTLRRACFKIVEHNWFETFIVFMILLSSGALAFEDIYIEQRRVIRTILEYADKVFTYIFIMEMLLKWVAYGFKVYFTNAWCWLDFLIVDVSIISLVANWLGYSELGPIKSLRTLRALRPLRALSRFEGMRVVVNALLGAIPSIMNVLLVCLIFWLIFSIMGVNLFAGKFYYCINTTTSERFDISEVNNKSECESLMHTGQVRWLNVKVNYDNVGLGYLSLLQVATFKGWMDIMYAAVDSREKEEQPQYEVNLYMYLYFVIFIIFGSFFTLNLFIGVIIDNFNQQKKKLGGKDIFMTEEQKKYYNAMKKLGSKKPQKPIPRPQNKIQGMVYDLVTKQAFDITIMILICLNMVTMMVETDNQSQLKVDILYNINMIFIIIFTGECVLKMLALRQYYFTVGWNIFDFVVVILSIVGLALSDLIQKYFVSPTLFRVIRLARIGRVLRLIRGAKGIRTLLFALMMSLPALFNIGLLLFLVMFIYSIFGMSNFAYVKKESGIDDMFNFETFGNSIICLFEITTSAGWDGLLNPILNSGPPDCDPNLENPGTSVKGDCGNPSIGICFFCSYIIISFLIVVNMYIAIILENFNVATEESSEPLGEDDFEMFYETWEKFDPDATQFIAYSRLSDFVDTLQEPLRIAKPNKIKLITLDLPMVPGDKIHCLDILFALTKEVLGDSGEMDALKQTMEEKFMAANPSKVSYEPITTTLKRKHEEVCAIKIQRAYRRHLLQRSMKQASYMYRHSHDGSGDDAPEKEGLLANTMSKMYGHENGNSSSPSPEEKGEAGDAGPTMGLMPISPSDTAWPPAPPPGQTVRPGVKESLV

This experiment has as its target Sodium channel protein type 4 subunit alpha (Homo sapiens, UniProt P35499). Description: Inhibition of Nav1.4 ion channel assessed as reduction in cumulative sodium current.
For `Cc1cc(Cl)cc(C)c1OC[C@H](C)CN`, the negative-log EC50 (pEC50) is 5.43.
With `Cc1cccc(C)c1N1CN2CCC[C@@H]2C1=O`, the pEC50 is 3.30.
In the case of `Cc1cccc(C)c1NC(=O)[C@@H]1CCN(Cc2ccccc2)C1`, the negative logarithm of the EC50 (pEC50) was 5.77.
The figure for `Cc1cccc(C)c1N(C)C(=O)[C@@H]1CCCN1` is 4.17.
Take `Cc1cccc(C)c1OC[C@H](C)N` [(S)-MEXILETINE]: the negative logarithm of the EC50 (pEC50) is 4.57.
On to `Cc1cccc(C)c1OC[C@H](N)C(C)C`, for which the negative logarithm of the EC50 (pEC50) is 5.24.
For `Cc1cccc(C)c1NC(=O)[C@H](C)N` [S-TOCAINIDE], the negative logarithm of the EC50 (pEC50) was 3.65.
For the compound `Cc1cccc(C)c1OC[C@@H](C)CN`, the pEC50 is 4.76.
As to `N[C@@H](COc1ccccc1)c1ccccc1`, the pEC50 is 5.40.
The result for `Cc1cc(Cl)cc(C)c1OC[C@@H](N)c1ccccc1` reads 5.10.
For `Cc1cccc(C)c1NC(=O)[C@@H](C)NCc1ccccc1`, the negative logarithm of the EC50 (pEC50) was 4.95.
With `Cc1cccc(C)c1SC[C@H](C)CN`, the pEC50 is 5.57.
For `Cc1cccc(C)c1N(C)C(=O)[C@H]1CCCN1C`, the pEC50 is 3.30.
On to `Cc1cccc(C)c1OC[C@@H](N)c1ccccc1`, for which the pEC50 was 5.52.
The figure for `Cc1cc(Cl)ccc1OC[C@H](N)c1ccccc1` is 4.82.
The figure for `Cc1cccc(C)c1NC(=O)[C@H](C)NCc1ccccc1` is 5.04; for `Cc1cccc(C)c1OC[C@H](N)Cc1ccccc1` it is 5.62; for `N[C@H](COc1ccc(Cl)cc1)c1ccccc1` it is 5.52.
Turning to `Cc1cccc(C)c1SC[C@@H](C)CN`, the negative-log EC50 (pEC50) was 5.72.
With `Cc1cccc(C)c1OC[C@@H](N)C(C)C` (racemic), the negative-log EC50 (pEC50) is 5.24.
The result for `Cc1cccc(C)c1NC(=O)[C@@H]1CCCN1C` reads 4.55; that for `Cc1cccc(C)c1N(C)C(=O)[C@@H]1CCCN1C`, 3.70; that for `Cc1cccc(C)c1NC(=O)[C@H]1CCN(Cc2ccccc2)C1`, 5.64.
As for `N[C@H](COc1ccccc1)c1ccccc1`, the pEC50 is 4.80.
With `Cc1cc(Cl)cc(C)c1OC[C@H](N)c1ccccc1`, the pEC50 is 4.71.
On to `Cc1cccc(C)c1NC(=O)[C@H]1CCCN1`, for which the pEC50 was 4.92.
The figure for `Cc1cccc(C)c1SC[C@@H](N)c1ccccc1` is 5.33; for `Cc1cccc(C)c1OC[C@@H](C)N` [(R)-MEXILETINE] it is 4.64; for `Cc1cccc(C)c1NC(=O)[C@@H](C)N` [(R)-TOCAINIDE] it is 3.56.
Regarding `Cc1cccc(C)c1NC(=O)[C@H]1CCCN1Cc1ccccc1`, the negative logarithm of the EC50 (pEC50) was 4.50.
With `Cc1cccc(C)c1OC[C@H](C)CN`, the pEC50 was 4.63.
Turning to `Cc1cccc(C)c1NC(=O)[C@@H]1CCCN1Cc1ccccc1`, the negative-log EC50 (pEC50) is 5.00.
For the compound `Cc1cccc(C)c1NC(=O)[C@H]1CCCN1C`, the negative-log EC50 (pEC50) is 4.17.
`Cc1cccc(C)c1OC[C@H](N)c1ccccc1`: the negative logarithm of the EC50 (pEC50) is 5.52.
As to `Cc1cc(Cl)cc(C)c1OC[C@@H](C)CN`, the negative logarithm of the EC50 (pEC50) is 5.54.
Turning to `Cc1cccc(C)c1NC(=O)[C@@H]1CCCN1`, the negative logarithm of the EC50 (pEC50) was 4.39.
Turning to `Cc1cccc(C)c1N(C)C(=O)[C@H]1CCCN1`, the pEC50 is 3.66.
Consider `Cc1cc(Cl)ccc1OC[C@@H](N)Cc1ccccc1`, for which the pEC50 was 4.64.
For the compound `Cc1cccc(C)c1SC[C@H](N)c1ccccc1`, the pEC50 is 5.15.
